Assay [1] addresses T1, LmTXNPx (Leishmania major, UniProt Q4QF76). Kind of assay: Surface plasmon resonance, immobilized LmTXNPx. The assay is classed as binding. The following applies: SPR, 1:1 steady-state affinity model. On the procedure:
SPR experiments were carried out using a SensiQ Pioneer system (SensiQ, ICxNomadics Inc.). The interaction of the immobilized protein with the analytes was detected by mass concentration-dependent changes of the refractive index on the sensor chip surface. The changes in the observed SPR signal are expressed as Resonance Units (RU). Typically, a response change of 1000 RU corresponds to a change in the surface concentration on the sensor chip of about 1 ng of protein per mm^2.
The sensor chips (COOH5 SensiQ) were chemically activated by injection of 250 μl of a 1:1 mixture of N-hydroxysuccinimide (50 mM) and N-ethyl-N-(3-dimethylaminopropyl)carbodiimide (200 mM) at a flow rate of 25 μl/min. Recombinant LmTXNPx was immobilized on the activated sensor chip via amine coupling. The reaction was carried out at a rate of […] in 20 mM sodium acetate at pH 4.5; the remaining ester groups were blocked by injecting 100 μL of 1 M ethanolamine hydrochloride. Recombinant LmTXNPx was captured to approximately 2000 RU. The analytes were dissolved at a concentration of 10 mM or 20 mM in dimethylsulfoxide (DMSO), and diluted 1:100 in HEPES-buffered saline (HBS: 10 mM HEPES, pH 7.4; 150 mM NaCl; 0.005% surfactant P20).
FastStep injections of samples (100 or 200 μM analytes in HBS + 1% DMSO), and reference buffer (HBS + 1% DMSO) were performed: either the inhibitor and reference buffer were automatically diluted in HBS and injected by 7 serial doubling steps (step contact time = 15 s, nominal flow rate = 200 μl/min). The following analytes were injected: 0–17 s: analyte concentration = 3.12 μM; 17–33 s: 6.25 μM; 33–48 s: 12.5 μM; 48–62 s: 25 μM; 63–78 s: 50 μM; 78–93 s: 100 μM; 94–100 s: 200 μM; for each injection, a maximal RU value was obtained. In control experiments, the sensor chip was treated as described above in the absence of immobilized protein.
Each sensorgram is the average of three different experiments. Sensorgrams were subjected to global analysis using QDat software 2.2.0.23, and for each analyte concentration a % Response was calculated, allowing a local Rmax fit (according to the molecular weight of each compound) and displaying as a response relative to the Rmax. % Response vs. analyte concentration was plotted and a KD value was calculated for each analyte by fitting a simple 1:1 steady-state affinity model to the data.

The target of assay [2] is T1, LmTXNPx. As to the kind of experiment: HRP-H2O2 competition assay (LmTXNPx inhibition assay). The assay is classed as biochemical. The following applies: residual activity of HRP; HRP 2 μM, H2O2 0.25 μM, 2.5 μM LmTXNPx, 100 μM inhibitors, sodium phosphate buffer pH 7.4, 25°C. An excerpt: To determine the ability of the selected compounds to inhibit the catalytic activity of LmTXNPx, we used the horseradish peroxidase (HRP)-H2O2 competition assay developed by Augusto and co-workers[16]. HRP is well known to react with H2O2 in a two-electron oxidation process that leads to the formation of HRP compound I (HRP-I), a stable HRP oxidized intermediate that can be followed at 398 nm. Reduced LmTXNPx competes with HRP for the H2O2 substrate, leading to a decrease in HRP-I yield that is proportional to LmTXNPx concentration. The addition of LmTXNPx inhibitors leads to a decrease in free LmTXNPx concentration and consequent increase in the HRP-I yield.
Competition kinetics have been performed for determining the activity of the compounds selected by HTD. The ability of the compounds to inhibit the H2O2 reduction by LmTXNPx has been determined by competition approach utilizing the well-known reactivity of H2O2 with horseradish peroxidase (HRP)[16][20][26]. HRP is a heme-containing peroxidase, which uses hydrogen peroxide (by reducing it to water) to oxidize different organic substrates to free radicals. The reaction takes place in three steps: • PFe(III) + H2O2 → P^·+Fe(IV) = O + H2O • P^·+Fe(IV) = O + X → X^• + PFe(IV) = O • PFe(IV) = O + X + 2H^+ → PFe(III) + X^· + H2O
Where PFe(III) is HRP (the native protein), P^·+Fe(IV) = O is the HRP compound I (HRP-I), PFe(IV) = O is the HRP compound II (HRP-II) and X is a generic substrate. The formation of HPR-I results in a change in light absorption in the visible range (Δε403 nm = 5.4 × 10^4 M^−1cm^−1). For kinetic studies the HRP oxidation is monitored at 398 nm (Δε398 nm = 4.2 × 10^4 M^−1cm^−1) instead of 403 nm (wavelength corresponding to the maximum of HRP absorbance) in order to avoid interferences arising from HRP-I reduction to HRP-II. This method is usually used to determine the second order rate constant of 2Cys- Peroxiredoxin reaction with hydrogen peroxide and peroxinitrite.
Thus, H2O2-mediated HRP oxidation is a two-electron oxidation process, leading to the formation of HRP-I, followed at 398 nm. The addition of increasing concentrations of pre-reduced LmTXNPx led to a lower yield in HRP-I since two reactions take place in solution: [drawing 1] [drawing 2]
Where I indicates the inhibitor and LmTXNPx-I indicates the complex between LmTXNPx and the inhibitor. The addition of active LmTXNPx inhibitors led to a decrease in the free LmTXNPx and the consequent recover in the HRP-I yield and therefore to a partial or total recover of the ΔA.
The HRP-based indirect kinetic assays to test the inhibitors was performed in the following way: HRP 2 μM was exposed to H2O2 0.25 μM in sodium phosphate buffer pH 7.4 and 25°C, either in the absence or in the presence of the indicated concentrations of reduced LmTXNPx and in the absence or in the presence of inhibitors. The relative changes in absorbance at 398 nm (ΔA/ΔA0), reflecting HRP-I formation, were determined.
(§1) The compounds ability to inhibit TXNPx has been evaluated by simply measuring the following ratio: ΔA/ΔA0 where ΔA0 is the difference in absorbance between HRP and compound I (ΔA0 = 0.04) and ΔA is the difference in absorbance between HRP and compound I in the presence of LmTXNPx and 100 μM inhibitors. All the compounds have been previously tested for their ability to inhibit HRP at a concentration of 100 μM.

Assay [3] concerns the target T2, horseradish peroxidase (HRP) (Armoracia rusticana, UniProt P00433).
T2 sequence (P00433 31-353): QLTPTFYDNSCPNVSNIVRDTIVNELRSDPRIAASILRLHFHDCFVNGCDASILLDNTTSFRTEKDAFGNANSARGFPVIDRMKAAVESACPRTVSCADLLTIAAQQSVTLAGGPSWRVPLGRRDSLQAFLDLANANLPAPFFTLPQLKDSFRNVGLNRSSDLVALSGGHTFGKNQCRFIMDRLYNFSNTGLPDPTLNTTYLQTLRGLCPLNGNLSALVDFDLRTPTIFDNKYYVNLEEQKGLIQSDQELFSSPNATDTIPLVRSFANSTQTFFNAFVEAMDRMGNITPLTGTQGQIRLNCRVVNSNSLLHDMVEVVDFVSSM
Kind of assay: HRP inhibition control (compounds tested for their ability to inhibit HRP). The assay is classed as biochemical. As to conditions: compound at 100 μM. As to the method: as §1

In assay [4] the target is Tryparedoxin peroxidase I from Leishmania major (LmTXNPx) (Leishmania major). Kind of assay: crystal structure; hanging drop vapor diffusion at 293 K; 12 mg/mL protein in 20 mM Tris-HCl pH 7.5 with 50 mM DTT (reduced); pentamer in the asymmetric unit, decamer from two pentamers of adjacent asymmetric units.

One may read the Kd as the equilibrium constant for the complex coming apart. Take `COc1cc2cc(CN(Cc3nnnn3Cc3ccccc3)CC34CC5CC(CC(C5)C3)C4)c(=O)[nH]c2cc1OC` [Compound 12, 3-((((1-Benzyl-1H-tetrazol-5-yl)methyl)(1-adamantylmethyl)amino)methyl)-6,7-dimethoxyquinolin-2(1H)-one]: the Kd at LmTXNPx [1] came out at 39 ± 1 µM. The “(ΔA/ΔA0) × 100” value on LmTXNPx [2] was found to be 93 ± 6%. Also, in assay [3], the HRP inhib. result is given as “No”.

A word on the stoichiometry N: it is the number of molecules, sites or subunits per partner or assembly. Take “Tryparedoxin peroxidase I from Leishmania major (LmTXNPx) (enzyme)”: the stoichiometry N in assay [4] stood at 10.

These data come from paper PMC4423475, “Structure-based discovery of the first non-covalent inhibitors of Leishmania major tryparedoxin peroxidase by high throughput docking” (Scientific Reports, 2015).
